The values below come from patent publication US11858941B2, “Heterocyclic and heteroaryl compounds for treating Huntington's disease” (PTC THERAPEUTICS, INC., priority 2018, dated 2024).

For this test, the system named is Endogenous Huntingtin Protein. Put plainly: Endogenous Huntingtin Protein Assay (Meso Scale Discovery ELISA-based electrochemiluminescence). It is filed as cell-based. The note with it: MSD plates coated with MW1 (expanded polyglutamine) or MAB2166 capture antibody; lysates. Put shortly: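 MSD electrochemiluminescence sandwich ELISA: MW1 (expanded polyQ) or MAB2166 capture antibody at 1 μg/mL, samples incubated overnight at 4° C. Detection with rabbit monoclonal #5656S then SULFO-TAG anti-rabbit antibody, each 0.25 μg/mL for 1 h at room temperature.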

Turning to `CC1(C)CC(n2nnc3cc(-c4cc(F)c(-c5cn[nH]c5)cc4F)nnc32)CC(C)(C)N1` [Cpd 14, 6-[2,5-difluoro-4-(1H-pyrazol-4-yl)phenyl]-3-(2,2,6,6-tetramethylpiperidin-4-yl)-3H-[1,2,3]triazolo[4,5-c]pyridazine], the IC50 fell in the range of 100 to 500 nM.

For the molecule `CC1(C)CC(n2nnc3cc(-c4ccc(-c5nncs5)cc4O)nnc32)CC(C)(C)N1` [Cpd 116, 2-[3-(2,2,6,6-tetramethylpiperidin-4-yl)-3H-[1,2,3]triazolo[4,5-c]pyridazin-6-yl]-5-(1,3,4-thiadiazol-2-yl)phenol], the half-maximal inhibitory concentration (IC50) was at most 100 nM. `CC1(C)CC(n2nnc3cc(-c4ccc(-c5cncs5)cc4O)nnc32)CC(C)(C)N1` [Cpd 107, 2-[3-(2,2,6,6-tetramethylpiperidin-4-yl)-3H-[1,2,3]triazolo[4,5-c]pyridazin-6-yl]-5-(1,3-thiazol-5-yl)phenol] returned a half-maximal inhibitory concentration (IC50) of at most 100 nM.

`CC1(C)CC(n2nnc3cc(-c4ccc(-c5cc(=O)[nH]cn5)cc4O)nnc32)CC(C)(C)N1` [Cpd 128, 6-{3-hydroxy-4-[3-(2,2,6,6-tetramethylpiperidin-4-yl)-3H-[1,2,3]triazolo[4,5-c]pyridazin-6-yl]phenyl}pyrimidin-4(3H)-one] came in with an IC50 of at most 100 nM.

On to `CC1(C)CC(n2ccc3nc(-c4ccc(-c5cn[nH]c5)cc4O)cnc32)CC(C)(C)N1` [Cpd 10, 5-(1H-pyrazol-4-yl)-2-[5-(2,2,6,6-tetramethylpiperidin-4-yl)-5H-pyrrolo[2,3-b]pyrazin-2-yl]phenol], for which the concentration for half-maximal inhibition (IC50) is at most 100 nM.

In the case of `CC1(C)CC(n2nnc3cc(-c4ccc(-n5ccnc5)cc4O)nnc32)CC(C)(C)N1` [Cpd 70, 5-(1H-imidazol-1-yl)-2-[3-(2,2,6,6-tetramethylpiperidin-4-yl)-3H-[1,2,3]triazolo[4,5-c]pyridazin-6-yl]phenol], the IC50 is at most 100 nM. For `Cn1ccc(-c2ccc(-c3cc4nnn([C@H]5CC(C)(C)NC(C)(C)[C@H]5F)c4nn3)c(O)c2)cc1=O` [Cpd 171, 4-(4-{3-[(3S,4S)-3-fluoro-2,2,6,6-tetramethylpiperidin-4-yl]-3H-[1,2,3]triazolo[4,5-c]pyridazin-6-yl}-3-hydroxyphenyl)-1-methylpyridin-2(1H)-one] the value was 100 to 500 nM.

`Cn1cc(-c2ccc(-c3cc4nnn(C5CC(C)(C)NC(C)(C)C5)c4nn3)c(O)c2)c(F)n1` [Cpd 130, 5-(3-fluoro-1-methyl-1H-pyrazol-4-yl)-2-[3-(2,2,6,6-tetramethylpiperidin-4-yl)-3H-[1,2,3]triazolo[4,5-c]pyridazin-6-yl]phenol] had an IC50 of at most 100 nM.

With `Cn1cnc(-c2ccc(-c3cc4nnn([C@H]5CC(C)(C)NC(C)(C)[C@H]5F)c4nn3)c(O)c2)cc1=O` [Cpd 172, 6-(4-{3-[(3S,4S)-3-fluoro-2,2,6,6-tetramethylpiperidin-4-yl]-3H-[1,2,3]triazolo[4,5-c]pyridazin-6-yl}-3-hydroxyphenyl)-3-methylpyrimidin-4(3H)-one], the IC50 fell in the range of 100 to 500 nM. For `CC1(C)CC(n2nnc3cc(-c4ccc(-c5nccs5)cc4O)nnc32)CC(C)(C)N1` [Cpd 96, 2-[3-(2,2,6,6-tetramethylpiperidin-4-yl)-3H-[1,2,3]triazolo[4,5-c]pyridazin-6-yl]-5-(1,3-thiazol-2-yl)phenol] the value was at most 100 nM; for `CC1(C)CC(n2nnc3cc(-c4ccc(-c5c[nH]nc5Br)cc4O)nnc32)CC(C)(C)N1` [Cpd 137, 5-(3-bromo-1H-pyrazol-4-yl)-2-[3-(2,2,6,6-tetramethylpiperidin-4-yl)-3H-[1,2,3]triazolo[4,5-c]pyridazin-6-yl]phenol], at most 100 nM; for `CC1(C)CC(n2ncc3cc(-c4ccc(-c5cncnc5)cc4O)nnc32)CC(C)(C)N1` [Cpd 167, 5-(pyrimidin-5-yl)-2-[1-(2,2,6,6-tetramethylpiperidin-4-yl)-1H-pyrazolo[3,4-c]pyridazin-5-yl]phenol], 1000 to 3000 nM. Next, `Cc1cn(-c2ccc(-c3cc4nnn(C5CC(C)(C)NC(C)(C)C5)c4nn3)c(O)c2)c(C)n1` [Cpd 149, 5-(2,4-dimethyl-1H-imidazol-1-yl)-2-[3-(2,2,6,6-tetramethylpiperidin-4-yl)-3H-[1,2,3]triazolo[4,5-c]pyridazin-6-yl]phenol]: 1000 to 3000 nM; `CC1(C)CC(n2nnc3cc(-c4ccc(-c5cnccn5)cc4O)nnc32)CC(C)(C)N1` [Cpd 60, 5-(pyrazin-2-yl)-2-[3-(2,2,6,6-tetramethylpiperidin-4-yl)-3H-[1,2,3]triazolo[4,5-c]pyridazin-6-yl]phenol]: 1000 to 3000 nM.

Molecule `CC1(C)CC(n2nnc3cc(-c4ccc(-c5ccsc5)cc4O)nnc32)CC(C)(C)N1` [Cpd 89, 2-[3-(2,2,6,6-tetramethylpiperidin-4-yl)-3H-[1,2,3]triazolo[4,5-c]pyridazin-6-yl]-5-(thiophen-3-yl)phenol] had an IC50 of 100 to 500 nM. Molecule `COc1ncnc(-c2ccc(-c3cc4nnn(C5CC(C)(C)NC(C)(C)C5)c4nn3)c(O)c2)n1` [Cpd 159, 5-(4-methoxy-1,3,5-triazin-2-yl)-2-(3-(2,2,6,6-tetramethylpiperidin-4-yl)-3H-[1,2,3]triazolo[4,5-c]pyridazin-6-yl)phenol] showed a concentration for half-maximal inhibition (IC50) of at most 100 nM. For `CC1(C)CC(n2nnc3cc(-c4c(O)cc(-c5cn[nH]c5)cc4F)nnc32)CC(C)(C)N1` [Cpd 59, 3-fluoro-5-(1H-pyrazol-4-yl)-2-[3-(2,2,6,6-tetramethylpiperidin-4-yl)-3H-[1,2,3]triazolo[4,5-c]pyridazin-6-yl]phenol] the value was at most 100 nM; for `Cn1cc(-c2ccc(-c3cc4nnn(C5CC(C)(C)NC(C)(C)C5)c4nn3)c(O)c2)c(C#N)n1` [Cpd 132, 4-{3-hydroxy-4-[3-(2,2,6,6-tetramethylpiperidin-4-yl)-3H-[1,2,3]triazolo[4,5-c]pyridazin-6-yl]phenyl}-1-methyl-1H-pyrazole-3-carbonitrile], 500 to 1000 nM.

As for `CC1(C)CC(n2nnc3cc(-c4cc(Cl)c(-c5cn[nH]c5)cc4O)nnc32)CC(C)(C)N1` [Cpd 83, 4-chloro-5-(1H-pyrazol-4-yl)-2-[3-(2,2,6,6-tetramethylpiperidin-4-yl)-3H-[1,2,3]triazolo[4,5-c]pyridazin-6-yl]phenol], the IC50 was at most 100 nM.

`CC1(C)CC(n2nnc3cc(-c4ccc(-c5cncnc5)cc4O)nnc32)CC(C)(C)N1` [Cpd 78, 5-(pyrimidin-5-yl)-2-[3-(2,2,6,6-tetramethylpiperidin-4-yl)-3H-[1,2,3]triazolo[4,5-c]pyridazin-6-yl]phenol] displayed an IC50 of 1000 to 3000 nM. Next, `CC1(C)CC(n2nnc3cc(-c4ccc(-c5cn[nH]c5)cc4O)nnc32)CCN1` (stereo not shown) [Cpd 56, 2-[3-(2,2-dimethylpiperidin-4-yl)-3H-[1,2,3]triazolo[4,5-c]pyridazin-6-yl]-5-(1H-pyrazol-4-yl)phenol]: 100 to 500 nM; `CCNc1nc2cc(-c3ccc(-c4cn[nH]c4)cc3O)nnc2n1C1CC(C)(C)NC(C)(C)C1` [Cpd 49, 2-[6-(ethylamino)-7-(2,2,6,6-tetramethylpiperidin-4-yl)-7H-imidazo[4,5-c]pyridazin-3-yl]-5-(1H-pyrazol-4-yl)phenol]: 1000 to 3000 nM; `Oc1cc(-c2cn[nH]c2)ccc1-c1cc2[nH]cc(N3CCNCC3)c2nn1` [Cpd 43, 2-[7-(piperazin-1-yl)-5H-pyrrolo[3,2-c]pyridazin-3-yl]-5-(1H-pyrazol-4-yl)phenol]: 500 to 1000 nM. Next, `CC1(C)CC(n2nnc3cc(-c4ccc(-c5c[nH]nc5C#N)cc4O)nnc32)CC(C)(C)N1` [Cpd 109, 4-{3-hydroxy-4-[3-(2,2,6,6-tetramethylpiperidin-4-yl)-3H-[1,2,3]triazolo[4,5-c]pyridazin-6-yl]phenyl}-1H-pyrazole-3-carbonitrile]: at most 100 nM; `CC1(C)CC(n2nnc3cc(-c4ccc(-c5ccn6cncc6c5)cc4O)nnc32)CC(C)(C)N1` [Cpd 88, 5-(imidazo[1,5-a]pyridin-7-yl)-2-[3-(2,2,6,6-tetramethylpiperidin-4-yl)-3H-[1,2,3]triazolo[4,5-c]pyridazin-6-yl]phenol]: 100 to 500 nM; `CC1(C)CC(n2nnc3cc(-c4cc(F)c(-c5ccc(O)cc5)cc4O)nnc32)CC(C)(C)N1` [Cpd 53, 6-fluoro-4-[3-(2,2,6,6-tetramethylpiperidin-4-yl)-3H-[1,2,3]triazolo[4,5-c]pyridazin-6-yl][1,1′-biphenyl]-3,4′-diol]: at most 100 nM. For `CC1(C)C[C@H](n2nnc3cc(-c4ccc(-c5c[nH]nc5F)cc4O)nnc32)[C@H](F)C(C)(C)N1` [Cpd 173, 5-(3-fluoro-1H-pyrazol-4-yl)-2-{3-[(3S,4S)-3-fluoro-2,2,6,6-tetramethylpiperidin-4-yl]-3H-[1,2,3]triazolo[4,5-c]pyridazin-6-yl}phenol] the value was at most 100 nM; for `COc1nccc(-c2ccc(-c3cc4nnn(C5CC(C)(C)NC(C)(C)C5)c4nn3)c(O)c2)n1` [Cpd 119, 5-(2-methoxypyrimidin-4-yl)-2-[3-(2,2,6,6-tetramethylpiperidin-4-yl)-3H-[1,2,3]triazolo[4,5-c]pyridazin-6-yl]phenol], 100 to 500 nM. Molecule `CC1(C)CC(n2nnc3cc(-c4ccc(-c5ccncc5F)cc4O)nnc32)CC(C)(C)N1` [Cpd 101, 5-(3-fluoropyridin-4-yl)-2-[3-(2,2,6,6-tetramethylpiperidin-4-yl)-3H-[1,2,3]triazolo[4,5-c]pyridazin-6-yl]phenol] showed an IC50 of 500 to 1000 nM. Next, `CC1(C)CC(n2nnc3cc(-c4ccc(-c5c[nH]nn5)cc4O)nnc32)CC(C)(C)N1` [Cpd 112, 2-[3-(2,2,6,6-tetramethylpiperidin-4-yl)-3H-[1,2,3]triazolo[4,5-c]pyridazin-6-yl]-5-(1H-1,2,3-triazol-4-yl)phenol]: at most 100 nM. Next, `Cc1nc(F)c(-c2ccc(-c3cc4nnn(C5CC(C)(C)NC(C)(C)C5)c4nn3)c(O)c2)s1` [Cpd 154, 5-(4-fluoro-2-methyl-1,3-thiazol-5-yl)-2-[3-(2,2,6,6-tetramethylpiperidin-4-yl)-3H-[1,2,3]triazolo[4,5-c]pyridazin-6-yl]phenol]: at most 100 nM.
